These results are taken from patent US10156556B2, “Method for determining ecological risks of polycyclic aromatic hydrocarbon in water body” (priority 2013, dated 2018).

SMILES strings stand for the structures.

The conditions of series [1]: relative to benzoapyrene; Nisbet and Lagoy 1992; cited from earlier work.
The subject of series [2] is water ecological system of the lake. In words: Ecological risk quotient, Monte Carlo sampling (10,000 times). The conditions noted are these: single pollutant, water body of the lake. From the text:
(5) calculating ecological risk quotient values RQi of specific polycyclic aromatic hydrocarbon pollutants: calculating according to a formula
[formula] wherein ECi is the environmental concentration of an i^th polycyclic aromatic hydrocarbon pollutant, TEFi is a toxic equivalency factor of the i^th polycyclic aromatic hydrocarbon pollutant relative to the benzoapyrene, and a concrete numerical value is from literature, and HC5 is the benzoapyrene concentration values of 95% of species in the protected water ecological system; conducting random sampling for 10,000 times using a Monte Carlo sampling method according to the concentration distribution characteristics of different polycyclic aromatic hydrocarbons; and drawing cumulative probability distribution curves of the ecological risk quotient values of each polycyclic aromatic hydrocarbon pollutant according to the Monte Carlo sampling result, and analyzing the probability that the risk quotient values thereof RQi are no less than one; and
(6) calculating the total ecological risk quotient value RQt of each polycyclic aromatic hydrocarbon pollutant: calculating according to a formula […]

Series [3] has as its system Mussel. As to conditions: chronic toxicity data, PAN Pesticide Database and EPA EcoTox Database; cited from earlier work.
In series [4] the test system is Chironomidae. The conditions noted are these: chronic toxicity data, PAN Pesticide Database and EPA EcoTox Database; cited from earlier work.
In series [5] the test system is 95% of species in the protected water ecological system. In words: Calculation of HC5 from log-transformed NOEC data. As to conditions: HC5=exp(Xm-KLSm), six species, KL 1.81. From the text:
(3) calculating benzoapyrene concentration values HC5 of 95% of species in the protected water ecological system: i.e., performing logarithmic transformation on the toxicity data and applying a formula HC5=exp(Xm−KLSm)′ to calculate, wherein m is the number of species, Xm means the arithmetic mean value of the toxicity data of the m species after the logarithmic transformation; Sm means the standard deviation of the toxicity data of the m species after the logarithmic transformation; and KL is a regulation factor, obtained from literature;
(3) Calculating the benzoapyrene concentration values HC5 of 95% of species in the protected water ecological system: logarithmic transformation is performed on the toxicity data in Table 1 to obtain that the arithmetic mean value Xm 3.77 ug/L and the standard deviation Sm 4.95 ug/L, and calculation is conducted using a formula HC5=exp(Xm−KLSm)i, wherein the regulation factor KL is 1.81 (from published literature: Aldenberg and Slob, Confidence limits for hazardous concentrations based on logistically distributed NOEC toxicity data, 1991), and the HC5 value is obtained as 0.0056 ug/L.

The subject of series [6] is Barbel fish. The conditions noted are these: chronic toxicity data, PAN Pesticide Database and EPA EcoTox Database; cited from earlier work.
For series [7], the system named is Green algae. The conditions noted are these: chronic toxicity data, PAN Pesticide Database and EPA EcoTox Database; cited from earlier work.
The test system of series [8] is Frog. As to conditions: chronic toxicity data, PAN Pesticide Database and EPA EcoTox Database; cited from earlier work.
Series [9] deals with Daphnia magna. As to conditions: chronic toxicity data, PAN Pesticide Database and EPA EcoTox Database; cited from earlier work.

Turning to `c1ccc2c(c1)ccc1cc3c(ccc4ccccc43)cc12` [DBA], the Toxic equivalency factor in [1] is given as 1. The “probability of the risk quotient value RQi greater than or equal to one” value in [2] worked out at 61.8%.
`c1ccc2c(c1)-c1cccc3c1c-2cc1ccccc13` [B[b]F]: the Toxic equivalency factor in [1] is on record as 0.1.
Take `c1ccc2c(c1)cc1ccc3cccc4ccc2c1c34` [B[a]P, benzoapyrene]: the NOEC in series [3] was 500 µg/L; in series [4], 5 µg/L; in series [6] it was 54.2 µg/L; in [7] it was 250000 µg/L; in [8], 10 µg/L; in series [9], 0.02 µg/L. The “HC5 (concentration value of 95% of species in the protected water ecological system)” value in series [5] is on record as 0.0056 ug/L. Besides, the Toxic equivalency factor in [1] is recorded as 1. In addition, the “probability of the risk quotient value RQi greater than or equal to one” value in series [2] was found to be 54.4%.
For the compound `c1ccc2ccccc2c1` [Nap], in series [1], the Toxic equivalency factor is given as 0.001.
For the compound `c1cc2c3c(cccc3c1)CC2` [Ace], the Toxic equivalency factor in series [1] is 0.001.
In the case of `c1ccc2cc3ccccc3cc2c1` [Ant, anthracene], the Toxic equivalency factor in series [1] is 0.01.
`c1ccc2c(c1)-c1ccc3ccc4cccc5cc-2c1c3c45` [Ind]: the Toxic equivalency factor in series [1] is recorded as 0.1.
Turning to `c1cc2ccc3ccc4ccc5cccc6c(c1)c2c3c4c56` [B[ghi]P], the Toxic equivalency factor in series [1] is listed as 0.01.
As for `C1=Cc2cccc3cccc1c23` [Acy], the Toxic equivalency factor in series [1] is recorded as 0.001.
Take `c1ccc2cc3c(cc2c1)-c1cccc2cccc-3c12` [B[k]F]: the Toxic equivalency factor in series [1] is 0.1.
`c1ccc2c(c1)ccc1c3ccccc3ccc21` [Chr]: the Toxic equivalency factor in [1] is 0.01.
